Results taken from US11746094B2, “Small molecule photosensitizers for photodynamic therapy” (The University Court of the University of Edinburgh, priority 2019, dated 2023).

Columns and labels:
[1] = Singlet oxygen generation (DPBF absorption, 520 nm laser); format: physicochemical; details: for Singlet oxygen quantum yield (%): DPBF 40 μM in EtOH, 520 nm laser 0.3 mW
U87 glioblastoma cells = assay: Phototoxicity assay in U87 glioblastoma cells, Annexin V-Pacific Blue staining (fluorescence microscopy, flow cytometry); format: cell-based
Method: Compound was administered at 100 μM and illuminated under 520 nm light. Annexin V-Pacific Blue was used as a stain for dead cells. Red fluorescence was used to confirm uptake of PS-SCOTfluor-13 into cells.
Phototoxicity assays of PS-SCOTfluor-13 and 2-NBDG in U87 glioblastoma cells were determined. Compounds administered at 100 μM and illuminated under 520 nm light. Annexin V-Pacific Blue was used as a stain for dead cells. Red fluorescence (for PS-SCOTfluor-13) and green fluorescence (for 2-NBDG) was used to confirm uptake of the compounds into cells.

[2] = test system: U87-mCrimson glioblastoma cells; assay: U87-mCrimson glioblastoma transplant in zebrafish embryos, 520 nm irradiation; format: in vivo; details: compound injected, then 520 nm light
Method: Briefly, U87-mCrimson glioblastoma cells were injected into the yolk sac of zebrafish embryos. Cells were effectively transplanted as shown by fluorescence microscopy images. Zebrafish were then irradiated with 520 nm light alone or injected with PS-SCOTfluor-13 and then irradiated with 520 nm light.

[3] = 100 μM, illuminated under 520 nm light

Compound	Singlet oxygen quantum yield (%) [1] [%]	Cell death as detected by Annexin V staining (fluorescence microscopy) (U87 glioblastoma cells; [3])	also measured
O=[N+]([O-])c1ccc(N[C@H]2C(O)O[C@H](CO)[C@@H](O)[C@@H]2O)c2nonc12 (stereo partly drawn) [2-NBDG, reference compound]	<1	does not kill the cells after illumination	Uptake into U87 glioblastoma cells (fluorescence) (U87 glioblastoma cells; 100 μM): uptaken by U87 glioblastoma cells
CCN(CC)c1ccc([N+](=O)[O-])c2n[se]nc12 [PS-SCOTfluor-5, N,N-diethyl-7-nitrobenzo[c][1,2,5]selenadiazol-4-amine]	3	–	–
CCN(CC)c1cc(I)c([N+](=O)[O-])c2n[se]nc12 [PS-SCOTfluor-6, N,N-diethyl-6-iodo-7-nitrobenzo[c][1,2,5]selenadiazol-4-amine]	5	–	–
O=[N+]([O-])c1ccc(N[C@@H]2[C@@H](O)[C@H](O)[C@@H](CO)O[C@H]2O)c2nsnc12 [PS-SCOTfluor-13, (2R,3R,4R,5S,6R)-6-(hydroxymethyl)-3-((7-nitrobenzo[c][1,2,5]thiadiazol-4-yl)amino)tetrahydro-2H-pyran-2,4,5-triol]	24	kills U87 glioblastoma cells only after irradiation with light	Activity as photosensitizer (summary of Table 1) [1]: high activity as photosensitizer; Cell death as detected by Annexin V staining (flow cytometry) (U87 glioblastoma cells; [3]): kills U87 glioblastoma cells only after irradiation with light but not without light; Effect of excess unlabelled glucose on uptake and cell death (U87 glioblastoma cells; competition with excess unlabelled glucose, Annexin V staining): reduces the uptake of PS-SCOTfluor-13 and subsequently cell death; Glioblastoma transplant (fluorescence of mCrimson reporter) [2]: reduction of the glioblastoma transplant
NC(CNc1ccc([N+](=O)[O-])c2n[se]nc12)C(=O)O (stereo not drawn) [PS-SCOTfluor-19, 2-amino-3-((7-nitrobenzo[c][1,2,5]selenadiazol-4-yl)amino)propanoic acid]	10	–	–
